Measurements reported in patent US12655116B2, “Substituted isophthalic acid diamides” (Bayer Aktiengesellschaft, priority 2020, dated 2026).

Assays:
ABUTH [1] = assay: Pre-emergence herbicidal action against ABUTH; format: in vivo, Abutilon theophrasti; conditions: Abutilon theophrasti, 504 h; for pest or weed control at 80 g/ha: scored visually after 3 weeks vs untreated controls (100% = plants have died, 0% = like control plants); for pest or weed control at 20 g/ha: dosage 20 g/ha, scored visually after 3 weeks vs untreated controls, 100% = plants have died, 0% = like control plants, read-out: Pre-emergence action against ABUTH (herbicidal activity in percent)
In short: (§1)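 Visual rating at 3 weeks vs untreated pots; 0–100% scale, 100% = plants died. Treatment: aqueous WP/EC spray onto covering soil, 600–800 l/ha, 0.2% wetter, seeds in sandy loam.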

ALOMY [2] = assay: Pre-emergence herbicidal action against ALOMY; format: in vivo, Alopecurus myosuroides; conditions: Alopecurus myosuroides, 504 h; 80 g/ha, pre-emergence, scored visually after 3 weeks vs untreated controls (100% = plants have died, 0% = like control plants)
In short: as §1

AMARE [3] = assay: Pre-emergence herbicidal action against AMARE; format: in vivo, Amaranthus retroflexus; conditions: Amaranthus retroflexus, 504 h, scored visually after 3 weeks vs untreated controls, 100% = plants have died, 0% = like control plants
In short: as §1

AVEFA [4] = assay: Pre-emergence herbicidal action against AVEFA; format: in vivo, Avena fatua; conditions: Avena fatua, 504 h, pre-emergence
In short: as §1

ECHCG [5] = assay: Pre-emergence herbicidal action against ECHCG; format: in vivo, Echinochloa crus-galli; conditions: Echinochloa crus-galli, 504 h
In short: as §1

LOLRI = assay: Pre-emergence herbicidal action against LOLRI; format: in vivo, Lolium rigidum; conditions: Lolium rigidum, 504 h, 80 g/ha
In short: as §1

MATIN [6] = assay: Pre-emergence herbicidal action against MATIN; format: in vivo, Matricaria inodora; conditions: Tripleurospermum inodorum, 504 h; for pest or weed control at 20 g/ha: dosage 20 g/ha; for pest or weed control at 80 g/ha: dosage 80 g/ha
In short: as §1

PHBPU [7] = assay: Pre-emergence herbicidal action against PHBPU; format: in vivo, Pharbitis purpurea; conditions: Ipomoea purpurea, 504 h, dosage 80 g/ha
In short: as §1

POLCO = assay: Pre-emergence herbicidal action against POLCO; format: in vivo, Polygonum convolvulus; conditions: Fallopia convolvulus, 504 h; for pest or weed control at 80 g/ha: dosage 80 g/ha
In short: as §1

SETVI [8] = assay: Pre-emergence herbicidal action against SETVI; format: in vivo, Setaria viridis; conditions: Setaria viridis, 504 h; for pest or weed control at 80 g/ha: dosage 80 g/ha
In short: as §1

STEME [9] = assay: Pre-emergence herbicidal action against STEME; format: in vivo, Stellaria media; conditions: Stellaria media, 504 h; for pest or weed control at 20 g/ha: dosage 20 g/ha; for pest or weed control at 80 g/ha: dosage 80 g/ha
In short: as §1

VERPE [10] = assay: Pre-emergence herbicidal action against VERPE; format: in vivo, Veronica persica; conditions: Veronica persica, 504 h, dosage 80 g/ha
In short: as §1

VIOTR [11] = assay: Pre-emergence herbicidal action against VIOTR; format: in vivo, Viola tricolor; conditions: Viola tricolor, 504 h; for pest or weed control at 20 g/ha: dosage 20 g/ha; for pest or weed control at 80 g/ha: dosage 80 g/ha
In short: as §1

DIGSA [12] = assay: Pre-emergence herbicidal action against DIGSA; format: in vivo, Digitaria sanguinalis; conditions: Digitaria sanguinalis, 504 h; for pest or weed control at 20 g/ha: dosage 20 g/ha; for pest or weed control at 80 g/ha: dosage 80 g/ha
In short: as §1

ABUTH [13] = assay: Post-emergence herbicidal action against ABUTH; format: in vivo, Abutilon theophrasti; conditions: Abutilon theophrasti, 504 h, visual assessment about 3 weeks after treatment vs untreated controls; for pest or weed control at 5 g/ha: dosage 5 g/ha; for pest or weed control at 20 g/ha: dosage 20 g/ha
In short: (§2)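 Greenhouse pot plants in sandy loam were sprayed at the one-leaf stage, 2 to 3 weeks after sowing, with WP or EC formulations as aqueous suspension or emulsion (600 to 800 l/ha water, 0.2% wetting agent). About 3 weeks later, damage was scored visually against untreated controls as % action (100% = dead, 0% = like control).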

AMARE [14] = assay: Post-emergence herbicidal action against AMARE; format: in vivo, Amaranthus retroflexus; conditions: Amaranthus retroflexus, 504 h, 20 g/ha, visual assessment about 3 weeks after treatment, 100% = plants have died, 0% = like control plants
In short: as §2

ECHCG [15] = assay: Post-emergence herbicidal action against ECHCG; format: in vivo, Echinochloa crus-galli; conditions: Echinochloa crus-galli, 504 h; for pest or weed control at 5 g/ha: dosage 5 g/ha; for pest or weed control at 20 g/ha: dosage 20 g/ha
In short: as §2

MATIN [16] = assay: Post-emergence herbicidal action against MATIN; format: in vivo, Matricaria inodora; conditions: Tripleurospermum inodorum, 504 h; for pest or weed control at 5 g/ha: dosage 5 g/ha; for pest or weed control at 20 g/ha: dosage 20 g/ha
In short: as §2

PHBPU [17] = assay: Post-emergence herbicidal action against PHBPU; format: in vivo, Pharbitis purpurea; conditions: Ipomoea purpurea, 504 h; for pest or weed control at 5 g/ha: dosage 5 g/ha; for pest or weed control at 20 g/ha: dosage 20 g/ha
In short: as §2

SETVI [18] = assay: Post-emergence herbicidal action against SETVI; format: in vivo, Setaria viridis; conditions: Setaria viridis, 504 h; for pest or weed control at 20 g/ha: dosage 20 g/ha
In short: as §2

STEME [19] = assay: Post-emergence herbicidal action against STEME; format: in vivo, Stellaria media; conditions: Stellaria media, 504 h, 20 g/ha
In short: as §2

VERPE [20] = assay: Post-emergence herbicidal action against VERPE; format: in vivo, Veronica persica; conditions: Veronica persica, 504 h, 20 g/ha
In short: as §2

VIOTR [21] = assay: Post-emergence herbicidal action against VIOTR; format: in vivo, Viola tricolor; conditions: Viola tricolor, 504 h
In short: as §2

DIGSA [22] = assay: Post-emergence herbicidal action against DIGSA; format: in vivo, Digitaria sanguinalis; conditions: Digitaria sanguinalis, 504 h
In short: as §2

ALOMY [23] = assay: Post-emergence herbicidal action against ALOMY; format: in vivo, Alopecurus myosuroides; conditions: Alopecurus myosuroides, 504 h, dosage 20 g/ha, visual assessment about 3 weeks after treatment vs untreated controls
In short: as §2

AVEFA [24] = assay: Post-emergence herbicidal action against AVEFA; format: in vivo, Avena fatua; conditions: Avena fatua, 504 h, 20 g/ha, visual assessment about 3 weeks after treatment, 100% = plants have died, 0% = like control plants
In short: as §2

| Compound | pest or weed control at 80 g/ha (ABUTH [1]) [%] | pest or weed control at 20 g/ha (ABUTH [1]) [%] | pest or weed control at 80 g/ha (ALOMY [2]) [%] | pest or weed control at 20 g/ha (AMARE [3]) [%] | pest or weed control at 80 g/ha (AMARE [3]) [%] | pest or weed control at 80 g/ha (AVEFA [4]) [%] | pest or weed control at 80 g/ha (ECHCG [5]) [%] | pest or weed control at 80 g/ha (LOLRI) [%] | pest or weed control at 20 g/ha (MATIN [6]) [%] | pest or weed control at 80 g/ha (MATIN [6]) [%] | pest or weed control at 80 g/ha (PHBPU [7]) [%] | pest or weed control at 80 g/ha (POLCO) [%] | pest or weed control at 80 g/ha (SETVI [8]) [%] | pest or weed control at 80 g/ha (VERPE [10]) [%] | pest or weed control at 20 g/ha (VIOTR [11]) [%] | pest or weed control at 80 g/ha (VIOTR [11]) [%] | pest or weed control at 20 g/ha (DIGSA [12]) [%] | pest or weed control at 80 g/ha (DIGSA [12]) [%] | pest or weed control at 5 g/ha (ABUTH [13]) [%] | pest or weed control at 20 g/ha (ABUTH [13]) [%] | further results |
| --- | --- | --- | --- | --- | --- | --- | --- | --- | --- | --- | --- | --- | --- | --- | --- | --- | --- | --- | --- | --- | --- |
| CCNC(=O)c1c(C(F)F)ccc(C(=O)Nc2nnnn2C)c1C [Example 1-45] | 100 | 80 | 90 | 100 | 100 | 90 | 90 | 80 | 100 | 100 | 90 | 90 | 100 | 90 | 80 | 100 | 100 | 100 | 80 | 90 | pest or weed control at 20 g/ha (POLCO; dosage 20 g/ha): 90%; pest or weed control at 20 g/ha (STEME [9]): 90%; pest or weed control at 80 g/ha (STEME [9]): 90%; pest or weed control at 20 g/ha (AMARE [14]): 90%; pest or weed control at 5 g/ha (ECHCG [15]): 80%; pest or weed control at 20 g/ha (ECHCG [15]): 80%; pest or weed control at 5 g/ha (MATIN [16]): 80%; pest or weed control at 20 g/ha (MATIN [16]): 80%; pest or weed control at 5 g/ha (PHBPU [17]): 80%; pest or weed control at 20 g/ha (PHBPU [17]): 80%; pest or weed control at 20 g/ha (SETVI [18]): 80%; pest or weed control at 20 g/ha (STEME [19]): 80%; pest or weed control at 20 g/ha (VERPE [20]): 80%; pest or weed control at 5 g/ha (VIOTR [21]): 80%; pest or weed control at 20 g/ha (VIOTR [21]): 90%; pest or weed control at 5 g/ha (DIGSA [22]): 80%; pest or weed control at 20 g/ha (DIGSA [22]): 80% |
| Cc1c(C(=O)Nc2nnnn2C)ccc(C(F)F)c1C(=O)NC1CC1 [Example 1-46] | 100 | 90 | 90 | 100 | 100 | 100 | 80 | 90 | 90 | 100 | 80 | 80 | 100 | 90 | 90 | 100 | 90 | 100 | 90 | 90 | pest or weed control at 20 g/ha (STEME [9]): 90%; pest or weed control at 80 g/ha (STEME [9]): 100%; pest or weed control at 20 g/ha (ALOMY [23]): 90%; pest or weed control at 20 g/ha (AMARE [14]): 100%; pest or weed control at 20 g/ha (AVEFA [24]): 80%; pest or weed control at 5 g/ha (ECHCG [15]): 80%; pest or weed control at 20 g/ha (ECHCG [15]): 80%; pest or weed control at 20 g/ha (MATIN [16]): 80%; pest or weed control at 5 g/ha (PHBPU [17]): 80%; pest or weed control at 20 g/ha (PHBPU [17]): 80%; pest or weed control at 20 g/ha (SETVI [18]): 80%; pest or weed control at 20 g/ha (STEME [19]): 80%; pest or weed control at 20 g/ha (VERPE [20]): 90%; pest or weed control at 5 g/ha (VIOTR [21]): 80%; pest or weed control at 20 g/ha (VIOTR [21]): 80%; pest or weed control at 5 g/ha (DIGSA [22]): 80%; pest or weed control at 20 g/ha (DIGSA [22]): 80% |
| CCn1nnnc1NC(=O)c1ccc(C(F)(F)F)c(C(=O)NC2CC2)c1C1CC1 [Example 2-288] | 100 | 100 | 90 | 100 | 100 | 90 | 100 | 90 | 90 | 100 | 90 | 90 | 100 | 100 | 100 | 100 | 100 | 100 | 80 | 80 | pest or weed control at 20 g/ha (AVEFA [4]; 20 g/ha, scored visually after 3 weeks, 100% = plants have died, 0% = like control plants): 80%; pest or weed control at 20 g/ha (ECHCG [5]; 20 g/ha): 90%; pest or weed control at 20 g/ha (SETVI [8]; dosage 20 g/ha): 90%; pest or weed control at 20 g/ha (ALOMY [23]): 90%; pest or weed control at 20 g/ha (AMARE [14]): 100%; pest or weed control at 20 g/ha (AVEFA [24]): 80%; pest or weed control at 5 g/ha (ECHCG [15]): 80%; pest or weed control at 20 g/ha (ECHCG [15]): 80%; pest or weed control at 5 g/ha (MATIN [16]): 80%; pest or weed control at 20 g/ha (MATIN [16]): 90%; pest or weed control at 5 g/ha (PHBPU [17]): 80%; pest or weed control at 20 g/ha (PHBPU [17]): 90%; pest or weed control at 5 g/ha (SETVI [18]; dosage 5 g/ha): 80%; pest or weed control at 20 g/ha (SETVI [18]): 90%; pest or weed control at 20 g/ha (VERPE [20]): 80%; pest or weed control at 5 g/ha (VIOTR [21]): 90%; pest or weed control at 20 g/ha (VIOTR [21]): 100%; pest or weed control at 5 g/ha (DIGSA [22]): 90%; pest or weed control at 20 g/ha (DIGSA [22]): 90% |
